# Data as given in patent US4022912A, “Use of 1-decarboxy-1-hydroxymethyl-PGE1 in therapeutic bronchodilation” (priority 1976, dated 1977).
# “Also recorded” adds a separate entry of the source. Like-named read-outs stand apart in the source and are kept apart here.
# Columns and labels:
# [1] = test system: Histamine-Induced Bronchoconstriction; assay: Inhibition of intravenous histamine-induced bronchoconstriction in the anesthetized guinea pig by inhalational administration; assay type: in vivo
# Protocol: (§1) Male albino guinea pigs (400-600 g; Dunkin-Hartley Strain) were anesthetized with pentobarbitone sodium (60 mg/kg intraperitoneally).
# (§2) Trachea, external jugular vein and carotid artery were cannulated for recording ventilation, intravenous administration of drugs, and blood pressure respectively. The animals were artificially respired throughout the experiment. Electrocardiograms were also recorded. Respiratory flow was charted on a twin-channel recorder fixed to an SE differential pressure transducer.
# (§3) Histamine was administered intravenously at 5 minute intervals. The test drug was administered intravenously 15 seconds prior to histamine in order to inhibit bronchoconstriction.
# Details of the procedure of this example are the same as those in preceding Example 2 with the exception that the test compounds were delivered in aerosol form into the trachea of the test aminals.
# [2] = test system: Histamine-Induced Bronchoconstriction; assay: Inhibition of histamine-induced bronchoconstriction in the anesthetized guinea pig in vivo by intravenous administration; conditions: for ED50: Cavia porcellus, iv, i.v. 15 seconds prior to histamine
# Protocol: as §1, §2, §3
# Guinea Pig Ileum = assay: Antagonism to PGE1 in the guinea pig ileum in vitro; assay type: cell-based; conditions: for antagonism of the effects of PGE1 in the guinea pig ileum: in vitro
# Protocol: Preparations were placed in tissue chambers filled with Ringer-Tyrode solution at 37° C., bubbled with a mixture of 95% O2 and 5% CO2, and arranged for isometric recording with force displacement transducers. The segments were stretched to an initial tension of 1 g, and responses to a test concentration of acetylcholine (0.1 mcg/ml) were obtained every 5 minutes until two similar responses were observed (usually after four administrations). Responses to PGE1
# (0.1 mcg/ml) were obtained and recorded at 5 minute intervals before and after 100 seconds of incubation with 0.1 and 1.0 mcg/ml of 1-decarboxy-1-hydroxymethyl-PGE1. Any direct contractile effect of the test compound was recorded and evaluated in terms of mean values in grams of tension developed at each concentration. Responses to the agonist observed after incubation with the test compound were expressed as percent of control responses. All drugs were administered in a volume of 0.1 ml.
# [3] = test system: mobilization of free fatty acids induced by epinephrine; conditions: U.S. Pat. No. 3,636,120 (Pike); cited from earlier work
# platelet aggregation = conditions: U.S. Pat. No. 3,636,120 (Pike); cited from earlier work
# [4] = test system: Convulsions Induced by Inhaled Histamine; assay: Delay of convulsions induced by inhaled histamine in conscious guinea pigs; assay type: in vivo, guinea pig
# Protocol: Conscious male albino guinea pigs (Dunkin-Hartley strain) weighing 200-300 g were placed (singly) in a 5-liter transparent chamber for 1 minute and subjected to an aerosol of vehicle or test drug in solution, plus histamine (1% w/v).
# The time from the beginning of the administration of the aerosol to the start of the first convulsion (when the guinea pig is immediately removed from the aerosol) is the pre-convulsion time. Twenty-four hours later the general procedure was repeated. Guinea pigs treated with the test drug on the first day were treated with vehicle on the second day and vice versa in a cross-over design. Maximum time allowed in the aerosol was 10 minutes. An ultrasonic humidifier was used to produce the aerosol.
# Conscious Cat = assay: Tracheobronchial irritancy (coughing) in conscious cats after inhalation; assay type: in vivo; conditions: for tracheobronchial irritancy compared with PGE1: inhalation, equivalent concentrations/dosages
# Protocol: A test drug was given at concentrations from 0.01 μg/ml (up to 100 μg/ml) at two hour intervals exposing each cat for up to 10 minutes each time. If coughing occurred no further challenge was given that day. Two to three days later the other test substance was given. The aerosol was delivered from an ultrasonic nebulizer via rubber tubing connected to a face mask fitted to the cat. The animal was mildly restrained. Coughing was noted by an observer and also monitored by a microphone connected to a tape recorder.
# [5] = test system: Guinea Pig Tracheal Tissue; assay: Relaxation of guinea pig tracheal tissue in vitro; assay type: cell-based; conditions: for Relaxation (×80) (± S.E.): Table B, standard error in parentheses
# Protocol: Male guinea pigs weighing 200-500 g were killed by a blow on the head. A 20 mm length of trachea was dissected from each of the animals, transferred to a petri dish containing Krebs' solution aerated with 95% O2 and 5% CO2 at 37° C., and cut longitudinally opposite the tracheal muscle. The tissue was then cut transversely three quarters of the distance across; a second cut in the opposite direction again three quarters of the distance across the tissue was made, and the procedure was continued for the whole tissue. The ends of the trachea were pulled to form a zig-zag shaped strip. The tracheal strips used in the experiment were approximately 30 mm when extended under 0.25-0.5 g load in a tissue bath. Cotton thread was tied to one end of the tissues, and linen thread to the other. The tissues were attached via the linen thread to a glass hook in a 5 ml isolated tissue bath containing Krebs' solution at 37° C. aerated with a mixture of 95% O2 and 5% CO2. The opposite ends were attached via cotton thread to an isotonic transducer. The load on the transducer lever was small, usually 0.3 g, with a range of 0.25-0.5 g; and the magnification high, 80-fold using an appropriate twin-channel pen recorder. A minimum of thirty minutes was allowed before applying a drug to the tissues. Drugs were then applied (in volumes of 0.5 ml) at thirty minute intervals, being in contact with the tissue for five minutes followed by an overflow washout time of twenty seconds.
# [6] = listed as 1-decarboxy-1-methylhydroxy-PGE1
# [7] = 0.10 μg/ml of stock solution aerosolized
# [8] = 1.00 μg/ml of stock solution aerosolized
compound,measurement,setting,value
"CCCCC[C@H](O)/C=C/[C@H]1[C@H](O)CC(=O)[C@@H]1CCCCCCCO [1-Decarboxy-1-Hydroxymethyl-PGE1, 15(S)-1,11α,15α-trihydroxy-9-oxo-13-trans-prostene]",Precent Inhibition of Histamine-Induced Bronchoconstriction,"[1]; 0.001 μg/ml in stock solution aerosolized, inhalation",24%
same,times more effective than PGE1 in inhibition of histamine-induced bronchoconstriction,"[1]; at 0.001 μg/ml, guinea pig in vivo, relative to PGE1",4 times
same,Ratio of ID50 Values (A/B),"[2]; A = PGE1, B = 1-decarboxy-1-hydroxymethyl-PGE1, Experiment No. 1",1.14
same,Ratio of ID50 Values (A/B),"[2]; A = PGE1, B = 1-decarboxy-1-hydroxymethyl-PGE1, Experiment No. 2",1.25
same,Ratio of ID50 Values (A/B),"[2]; A = PGE1, B = 1-decarboxy-1-hydroxymethyl-PGE1, Experiment No. 3",1.17
same,Ratio of ID50 Values (A/B),"[2]; A = PGE1, B = 1-decarboxy-1-hydroxymethyl-PGE1, Experiment No. 4",1.14
same,Ratio of ID50 Values (A/B),"[2]; A = PGE1, B = 1-decarboxy-1-hydroxymethyl-PGE1, Experiment No. 5",1.05
same,"Ratio of ID50 Values (A/B), Mean","[2]; A = PGE1, B = 1-decarboxy-1-hydroxymethyl-PGE1, mean",1.17
same,ED50,"[2]; Experiment No. 1, read-out: Dose I.V. inhibiting bronchoconstriction by 50% (ID50)",0.529 µg/kg
same,ED50,"[2]; Experiment No. 2, read-out: Dose I.V. inhibiting bronchoconstriction by 50% (ID50)",0.733 µg/kg
same,ED50,"[2]; Experiment No. 3, read-out: Dose I.V. inhibiting bronchoconstriction by 50% (ID50)",0.225 µg/kg
same,ED50,"[2]; Experiment No. 4, read-out: Dose I.V. inhibiting bronchoconstriction by 50% (ID50)",0.756 µg/kg
same,ED50,"[2]; Experiment No. 5, read-out: Dose I.V. inhibiting bronchoconstriction by 50% (ID50)",0.193 µg/kg
same,ED50,"[2]; mean of experiments 1-5, read-out: Dose I.V. inhibiting bronchoconstriction by 50% (ID50), Mean",0.495 µg/kg
same,"Direct Effect, gm tension",Guinea Pig Ileum; 0.1 mcg/ml,0.0 gm tension
same,"Direct Effect, gm tension",Guinea Pig Ileum; 1.0 mcg/ml,0.0 gm tension
same,inhibition at 0.1 µg/mL,"Guinea Pig Ileum; Cavia porcellus, 100 s, read-out: %-Blockade of Tissue Response to 0.1 mcg/ml of PGE1, 0.1 mcg/ml, 100 seconds of incubation",38%
same,inhibition at 1 µg/mL,"Guinea Pig Ileum; Cavia porcellus, 100 s, read-out: %-Blockade of Tissue Response to 0.1 mcg/ml of PGE1, 1.0 mcg/ml, 100 seconds of incubation",100%
same,direct effect on the tissue,Guinea Pig Ileum; at the tested concentrations,no effect on the tissue at the tested concentrations
same,antagonism of the effects of PGE1 in the guinea pig ileum,Guinea Pig Ileum,inhibits the effects of PGE1 in guinea pig ileum tissue in vitro
same,antagonism of the effects of PGE1 in the guinea pig ileum,Guinea Pig Ileum; [6],antagonizes the effects of PGE1 in the guinea pig ileum
same,effect on mobilization of free fatty acids induced by epinephrine,[3],antagonizes mobilization of free fatty acids induced by epinephrine
same,effect on platelet aggregation,platelet aggregation,inhibits platelet aggregation
same,Prolongation of Preconvulsion Time,"[4]; Expt. 1A, 0.10 μg/ml stock solution aerosolized, P <0.02",99 s
same,Prolongation of Preconvulsion Time,"[4]; Expt. 1A, 0.50 μg/ml stock solution aerosolized, P <0.001",140 s
same,Prolongation of Preconvulsion Time,"[4]; Expt. 1A, 2.50 μg/ml stock solution aerosolized, P <0.01",141 s
same,Prolongation of Preconvulsion Time,"[4]; Expt. 1A, 10.00 μg/ml stock solution aerosolized, P <0.02",181 s
same,Prolongation of Preconvulsion Time,"[4]; Expt. 2A, 0.01 μg/ml stock solution aerosolized, P <0.01",54 s
same,Prolongation of Preconvulsion Time,"[4]; Expt. 2A, 0.10 μg/ml stock solution aerosolized, P <0.05",41 s
same,Prolongation of Preconvulsion Time,"[4]; Expt. 2A, 1.00 μg/ml stock solution aerosolized, P <0.02",108 s
same,Prolongation of Preconvulsion Time,"[4]; Expt. 2A, 10.00 μg/ml stock solution aerosolized, P <0.02",198 s
same,Prolongation of Preconvulsion Time,"[4]; Expt. 2A, 25.00 μg/ml stock solution aerosolized, P <0.001",302 s
same,Incidence of Coughing in a Female (F) Cat,Conscious Cat; [7],0/3
same,Incidence of Coughing in a Male (M) Cat,Conscious Cat; [7],0/3
same,Incidence of Coughing in a Female (F) Cat,Conscious Cat; [8],1/3
same,Incidence of Coughing in a Male (M) Cat,Conscious Cat; [8],0/3
same,Incidence of Coughing in a Male (M) Cat,Conscious Cat; 10.00 μg/ml of stock solution aerosolized,0/3
same,Incidence of Coughing in a Male (M) Cat,Conscious Cat; 100.00 μg/ml of stock solution aerosolized,0/2
same,tracheobronchial irritancy compared with PGE1,Conscious Cat,much lower incidence of tracheobronchial irritancy than does PGE1 at equivalent concentrations; also recorded: does not cause tracheal-bronchial irritation at equivalent dosages
same,tracheobronchial irritancy compared with PGE1,Conscious Cat; [6],less irritating than PGE1
same,Relaxation (×80) (± S.E.),[5]; 0.001 μg/ml,24 (18) mm
same,"Relaxation (×80), 1st Tissue",[5]; 0.01 μg/ml,30 mm
same,"Relaxation (×80), 2nd Tissue",[5]; 0.01 μg/ml,30 mm
same,Relaxation (×80) (± S.E.),[5]; 0.010 μg/ml,59 (30) mm
same,"Relaxation (×80), Mean Response",[5]; 0.01 μg/ml,30 mm
same,"Relaxation (×80), 1st Tissue",[5]; 0.10 μg/ml,113 mm
same,"Relaxation (×80), 2nd Tissue",[5]; 0.10 μg/ml,93 mm
same,Relaxation (×80) (± S.E.),[5]; 0.100 μg/ml,79 (21) mm
same,"Relaxation (×80), Mean Response",[5]; 0.10 μg/ml,104 mm
same,"Relaxation (×80), 1st Tissue",[5]; 1.00 μg/ml,153 mm
same,"Relaxation (×80), 2nd Tissue",[5]; 1.00 μg/ml,173 mm
same,Relaxation (×80) (± S.E.),[5]; 1.000 μg/ml,104 (14) mm
same,"Relaxation (×80), Mean Response",[5]; 1.00 μg/ml,163 mm
same,"Relaxation (×80), 1st Tissue",[5]; 10.00 μg/ml,146 mm
same,"Relaxation (×80), 2nd Tissue",[5]; 10.00 μg/ml,199 mm
same,Relaxation (×80) (± S.E.),[5]; 10.000 μg/ml,105 (35) mm
same,"Relaxation (×80), Mean Response",[5]; 10.00 μg/ml,172 mm
same,times more potent than PGE1 in relaxing guinea pig tracheal tissue,"[5]; at 0.001 μg/ml, relative to PGE1",24 times
same,comparative effectiveness vs PGE1 in relaxation of tracheal tissue,[5]; equivalent concentrations,clearly more effective at equivalent concentrations
same,times more potent than PGE1 in relaxing guinea pig tracheal tissue in vitro,"[5]; relative to PGE1, no concentration stated for this clause",24 times
